Data published in patent publication US20180000085A1, “USE OF PICOLINAMIDE COMPOUNDS WITH FUNGICIDAL ACTIVITY” (DOW AGROSCIENCES LLC, priority 2014, published 2018).

Experiments:
[1] = tested on: Zymoseptoria tritici; experiment: Leaf blotch of wheat (SEPTTR) disease control on wheat seedlings; format: in vivo; set-up: key to SEPTTR 1DP, HV activity at 100 ppm (% control rating) / SEPTTR 3DC, HV activity at 100 ppm (% control rating) / SEPTTR disease control, 1DP / SEPTTR disease control, 3DC / SEPTTR 1DP disease control rating, HV activity / SEPTTR 3DC disease control rating, HV activity / SEPTTR 3DC, LV activity at 125.1 g/H (% Control rating) / SEPTTR 1DP, LV activity at 125.1 g/H (% Control rating) / SEPTTR 1DP disease control rating, LV activity at 125.1 g/H / SEPTTR 3DC disease control rating, LV activity at 125.1 g/H / SEPTTR 3DC disease control rating, HV activity at 100 ppm / SEPTTR 1DP disease control rating, HV activity at 100 ppm / HV activity at 100 ppm SEPTTR 3DC (disease control rating) / HV activity at 100 ppm SEPTTR 1DP (disease control rating) / LV activity at 125.1 g/H SEPTTR 1DP (disease control rating) / LV activity at 125.1 g/H SEPTTR 3DC (disease control rating): A: > 80; B: ≤ 80; C: Not Tested; D: No Activity Observed in the Reported Assay; settings: for HV activity at 100 ppm SEPTTR 1DP (disease control rating) / HV activity at 100 ppm SEPTTR 3DC (disease control rating): HV application; for SEPTTR 1DP disease control rating, HV activity / SEPTTR 3DC disease control rating, HV activity: HV application at 100 ppm
[2] = tested on: Puccinia triticina; experiment: Wheat brown rust (PUCCRT) disease control on wheat seedlings; format: in vivo; settings: for HV activity at 100 ppm PUCCRT 1DP (disease control rating) / HV activity at 100 ppm PUCCRT 3DC (disease control rating): HV application; for PUCCRT 1DP disease control rating, HV activity / PUCCRT 3DC disease control rating, HV activity: HV application at 100 ppm
[3] = 100 ppm, 1 Day Protectant, wheat leaf blotch
[4] = 100 ppm, 3 Day Curative, wheat leaf blotch
[5] = 100 ppm, 1 Day Protectant, wheat brown rust
[6] = 100 ppm, 3 Day Curative, wheat brown rust
[7] = high volume application, 100 ppm, 1 day protectant
[8] = high volume application, 100 ppm, 3 day curative
[9] = low volume application, 125.1 g/H, 1 Day Protectant
[10] = low volume application, 125.1 g/H, 3 Day Curative
[11] = low volume application, 125.1 g/H, 1 day protectant
[12] = low volume application, 125.1 g/H, 3 day curative
[13] = 1 Day Protectant, wheat leaf blotch
[14] = 3 Day Curative, wheat leaf blotch
[15] = 1 Day Protectant, wheat brown rust
[16] = 3 Day Curative, wheat brown rust

With `CC(C)C[C@@H](Oc1cccc(Cl)c1)[C@H](C)OC(=O)[C@H](C)NC(=O)c1ncccc1O` [Cmpd 1037] the “HV activity at 100 ppm SEPTTR 1DP (disease control rating)” value [1, 3] was “A (> 80)”, the “HV activity at 100 ppm SEPTTR 3DC (disease control rating)” value [1, 4] was “B (≤ 80)” and the “HV activity at 100 ppm PUCCRT 1DP (disease control rating)” value [2, 5] was “A (> 80)”. For the same compound, the “HV activity at 100 ppm PUCCRT 3DC (disease control rating)” value [2, 6] was “A (> 80)”.

With `COc1ccnc(C(=O)N[C@@H](C)C(=O)O[C@@H](C)[C@H](Oc2ccccc2)C2CC2)c1O` [Cmpd 1016] the “SEPTTR 1DP disease control rating, HV activity at 100 ppm” value [1, 7] was “B (≤ 80)”, the “SEPTTR 3DC disease control rating, HV activity at 100 ppm” value [1, 8] was “B (≤ 80)” and the “PUCCRT 1DP disease control rating, HV activity at 100 ppm” value [2, 7] was “A (> 80)”. For the same compound, the “PUCCRT 3DC disease control rating, HV activity at 100 ppm” value [2, 8] was “A (> 80)”.

With `COc1ccnc(C(=O)N[C@@H](C)C(=O)O[C@@H](C)[C@H](Oc2ccc(Cl)cc2Cl)C(C)C)c1OCOC(C)=O` [Cmpd 562] the “SEPTTR 1DP, LV activity at 125.1 g/H (% Control rating)” value (from here on “SEPTTR 1DP … (% Control rating)”) [1, 9] was “D”, the “SEPTTR 3DC, LV activity at 125.1 g/H (% Control rating)” value (“SEPTTR 3DC … (% Control rating)” below) [1, 10] was “A (> 80)” and the “PUCCRT 1DP, LV activity at 125.1 g/H (% Control rating)” value (shortened to “PUCCRT 1DP … (% Control rating)”) [2, 9] was “A (> 80)”. For the same compound, the “PUCCRT 3DC, LV activity at 125.1 g/H (% Control rating)” value (“PUCCRT 3DC … (% Control rating)” for short) [2, 10] was “A (> 80)”.

For `COc1ccnc(C(=O)N[C@@H](C)C(=O)O[C@@H](C)[C@@H](CC(C)C)Oc2ccc(Cl)cc2)c1O` [Cmpd 1047], the “HV activity at 100 ppm SEPTTR 1DP (disease control rating)” value [1, 3] was “B (≤ 80)”, the “HV activity at 100 ppm SEPTTR 3DC (disease control rating)” value [1, 4] was “A (> 80)” and the “HV activity at 100 ppm PUCCRT 1DP (disease control rating)” value [2, 5] was “A (> 80)”. The “HV activity at 100 ppm PUCCRT 3DC (disease control rating)” value [2, 6] was “A (> 80)”.

For `COc1ccnc(C(=O)N[C@@H](C)C(=O)O[C@@H](C)[C@H](Oc2cccc(Cl)c2)C2CC2)c1OC(C)=O` [Cmpd 1053], the “LV activity at 125.1 g/H SEPTTR 1DP (disease control rating)” value ([1]; low volume application, 125.1 g/H, 1 Day Protectant, wheat leaf blotch) was “B (≤ 80)”, the “LV activity at 125.1 g/H SEPTTR 3DC (disease control rating)” value ([1]; low volume application, 125.1 g/H, 3 Day Curative, wheat leaf blotch) was “A (> 80)” and the “LV activity at 125.1 g/H PUCCRT 1DP (disease control rating)” value ([2]; low volume application, 125.1 g/H, 1 Day Protectant, wheat brown rust) was “A (> 80)”. For the same compound, the “LV activity at 125.1 g/H PUCCRT 3DC (disease control rating)” value ([2]; low volume application, 125.1 g/H, 3 Day Curative, wheat brown rust) was “A (> 80)”.

With `CCC(CC)C(Oc1ccc(Cl)cc1)C(C)OC(=O)C(C)NC(=O)c1nccc(OC)c1OC(C)=O` (stereo not drawn) [Cmpd 674] the “SEPTTR 1DP disease control rating, LV activity at 125.1 g/H” value [1, 11] was “A (> 80)”, the “SEPTTR 3DC disease control rating, LV activity at 125.1 g/H” value [1, 12] was “A (> 80)” and the “PUCCRT 1DP disease control rating, LV activity at 125.1 g/H” value [2, 11] was “A (> 80)”. For the same compound, the “PUCCRT 3DC disease control rating, LV activity at 125.1 g/H” value [2, 12] was “B (≤ 80)”.

For `COc1ccnc(C(=O)N[C@H](C(=O)O[C@@H](C)[C@H](Oc2ccc3ccccc3c2)C(C)C)C(C)C)c1OCOC(C)=O` [Cmpd 633], the “SEPTTR 1DP … (% Control rating)” value [1, 9] was “B (≤ 80)”, the “SEPTTR 3DC … (% Control rating)” value [1, 10] was “A (> 80)” and the “PUCCRT 1DP … (% Control rating)” value [2, 9] was “A (> 80)”. The “PUCCRT 3DC … (% Control rating)” value [2, 10] was “A (> 80)”.

With `CCC(CCC(C)C)C(Oc1ccccc1)C(C)OC(=O)C(C)NC(=O)c1nccc(OC)c1O` (stereo not drawn) [Cmpd 317] the “SEPTTR 1DP disease control rating, HV activity” value [1, 13] was “A (> 80)”, the “SEPTTR 3DC disease control rating, HV activity” value [1, 14] was “B (≤ 80)” and the “PUCCRT 1DP disease control rating, HV activity” value [2, 15] was “A (> 80)”. The “PUCCRT 3DC disease control rating, HV activity” value [2, 16] was “B (≤ 80)”.

In the case of `COc1ccnc(C(=O)NC(C)C(=O)OC(C)COCc2ccccc2)c1OCOC(C)=O` (stereo not drawn) [Cmpd 520], the “SEPTTR 1DP … (% Control rating)” value [1, 9] is reported as “B (≤ 80)”, the “SEPTTR 3DC … (% Control rating)” value [1, 10] is reported as “D” and the “PUCCRT 1DP … (% Control rating)” value [2, 9] is reported as “B (≤ 80)”. The “PUCCRT 3DC … (% Control rating)” value [2, 10] was “B (≤ 80)”.

For `CCC(CC)[C@@H](Oc1ccc(F)cc1)[C@H](C)OC(=O)[C@@H](NC(=O)c1nccc(OC)c1O)C(C)C` [Cmpd 405], the “SEPTTR 1DP disease control rating, HV activity” value [1, 13] was “B (≤ 80)”, the “SEPTTR 3DC disease control rating, HV activity” value [1, 14] was “B (≤ 80)” and the “PUCCRT 1DP disease control rating, HV activity” value [2, 15] was “A (> 80)”. For the same compound, the “PUCCRT 3DC disease control rating, HV activity” value [2, 16] was “B (≤ 80)”.

For `C=CCC(Oc1ccccc1)C(C)OC(=O)C(C)NC(=O)c1nccc(OC)c1O` (stereo not drawn) [Cmpd 437], the “SEPTTR 1DP disease control rating, HV activity” value [1, 13] was “B (≤ 80)”, the “SEPTTR 3DC disease control rating, HV activity” value [1, 14] was “A (> 80)” and the “PUCCRT 1DP disease control rating, HV activity” value [2, 15] was “A (> 80)”. For the same compound, the “PUCCRT 3DC disease control rating, HV activity” value [2, 16] was “A (> 80)”.

In the case of `COc1ccnc(C(=O)NC(C)C(=O)OC(C)C(Oc2ccccc2)c2ccccc2)c1OC(C)=O` (stereo not drawn) [Cmpd 870], the “SEPTTR 1DP disease control rating, LV activity at 125.1 g/H” value [1, 11] is reported as “A (> 80)”, the “SEPTTR 3DC disease control rating, LV activity at 125.1 g/H” value [1, 12] is reported as “A (> 80)” and the “PUCCRT 1DP disease control rating, LV activity at 125.1 g/H” value [2, 11] is reported as “A (> 80)”. The “PUCCRT 3DC disease control rating, LV activity at 125.1 g/H” value [2, 12] was “B (≤ 80)”.
